pIC50: −log10 of the molar value.
Columns and labels:
[1] = test system: MDA-MB-231; test: Photocytotoxicity against human MDA-MB-231 cells assessed as inhibition of cell growth incubated for 24 hrs by MTT assay; assay type: functional, cell-based; settings: MDA-MB-231, 24 h
[2] = test system: MCF7; test: Photocytotoxicity against human MCF7 cells assessed as inhibition of cell growth incubated for 24 hrs by MTT assay; assay type: functional, cell-based; settings: MCF7, 24 h
[3] = test system: HCT-116; test: Photocytotoxicity against human HCT-116 cells assessed as inhibition of cell growth incubated for 24 hrs by MTT assay; assay type: functional, cell-based; settings: HCT-116, 24 h
[4] = test system: HT-29; test: Photocytotoxicity against human HT-29 cells assessed as inhibition of cell growth incubated for 24 hrs by MTT assay; assay type: functional, cell-based; settings: HT-29, 24 h
[5] = Photocytotoxicity against human MCF-10A cells assessed as inhibition of cell growth incubated for 24 hrs by MTT assay; assay type: toxicity, cell-based
[6] = Drug localization in mitochondria of human MDA-MB-231 cells incubated for 1 hrs by Mitotracker deep red/Hoechst staining based confocal microscopic analysis; assay type: ADME; settings: mda-mb-231, 1 h
[7] = test system: MDA-MB-231; test: Induction of oxidative stress on human MDA-MB-231 cells assessed as increase in ROS population incubated for 24 hrs under dark condition by CM-H2DCFDA staining based analysis relative to control; assay type: functional
[8] = test system: MDA-MB-231; test: Induction of oxidative stress on human MDA-MB-231 cells assessed as increase in ROS population at 15 nM preincubated with compound for 24 hrs followed by 540 nm light irradiation for 1 hrs by CM-H2DCFDA staining based analysis (reference value: 1.6%); assay type: functional; settings: time 25 hrs
[9] = test system: MDA-MB-231; test: Induction of oxidative stress on human MDA-MB-231 cells assessed as increase in ROS population at 30 nM preincubated with compound for 24 hrs followed by 540 nm light irradiation for 1 hrs by CM-H2DCFDA staining based analysis (reference value: 1.6%); assay type: functional; settings: time 25 hrs
[10] = test system: MDA-MB-231; test: Induction of apoptosis in human MDA-MB-231 cells assessed as early apoptotic cells at 15 nM incubated for 24 hrs under dark condition by Annexin V-FITC/PI staining based flow cytometric analysis relative to control; assay type: functional
[11] = test system: MDA-MB-231; test: Induction of apoptosis in human MDA-MB-231 cells assessed as late apoptotic cells at 15 nM incubated for 24 hrs under dark condition by Annexin V-FITC/PI staining based flow cytometric analysis relative to control; assay type: functional
[12] = test system: MDA-MB-231; test: Induction of apoptosis in human MDA-MB-231 cells assessed as necrotic cells at 15 nM incubated for 24 hrs under dark condition by Annexin V-FITC/PI staining based flow cytometric analysis relative to control; assay type: functional
[13] = test system: MDA-MB-231; test: Induction of apoptosis in human MDA-MB-231 cells assessed as early apoptotic cells at 15 nM preincubated with compound for 24 hrs followed by 540 nm light irradiation for 1 hrs by Annexin V-FITC/PI staining based flow cytometric analysis (reference value: 19.2%); assay type: functional; settings: time 25 hrs
[14] = test system: MDA-MB-231; test: Induction of apoptosis in human MDA-MB-231 cells assessed as late apoptotic cells at 15 nM preincubated with compound for 24 hrs followed by 540 nm light irradiation for 1 hrs by Annexin V-FITC/PI staining based flow cytometric analysis (reference value: 17.1%); assay type: functional; settings: time 25 hrs
[15] = test system: MDA-MB-231; test: Induction of apoptosis in human MDA-MB-231 cells assessed as necrotic cells at 15 nM preincubated with compound for 24 hrs followed by 540 nm light irradiation for 1 hrs by Annexin V-FITC/PI staining based flow cytometric analysis (reference value: 2.7%); assay type: functional; settings: time 25 hrs
[16] = test system: MDA-MB-231; test: Induction of apoptosis in human MDA-MB-231 cells assessed as early apoptotic cells at 30 nM preincubated with compound for 24 hrs followed by 540 nm light irradiation for 1 hrs by Annexin V-FITC/PI staining based flow cytometric analysis (reference value: 19.2%); assay type: functional; settings: time 25 hrs
[17] = test system: MDA-MB-231; test: Induction of apoptosis in human MDA-MB-231 cells assessed as late apoptotic cells at 30 nM preincubated with compound for 24 hrs followed by 540 nm light irradiation for 1 hrs by Annexin V-FITC/PI staining based flow cytometric analysis (reference value: 17.1%); assay type: functional; settings: time 25 hrs
[18] = test system: MDA-MB-231; test: Induction of apoptosis in human MDA-MB-231 cells assessed as necrotic cells at 30 nM preincubated with compound for 24 hrs followed by 540 nm light irradiation for 1 hrs by Annexin V-FITC/PI staining based flow cytometric analysis (reference value: 2.7%); assay type: functional; settings: time 25 hrs
[19] = test system: MDA-MB-231; test: Cell cycle arrest in human MDA-MB-231 cells assessed as accumulation of cells at G2/M phase at 15 nM preincubated with compound for 15 mins followed by light irradiation and measured after 3 to 24 hrs by RNase A/PI staining based flow cytometric analysis (reference value: 12.9%); assay type: functional; settings: time 195-1455 min
[20] = test system: MDA-MB-231; test: Cell cycle arrest in human MDA-MB-231 cells assessed as accumulation of cells at S phase incubated for 24 hrs by RNase A/PI staining based flow cytometric analysis relative to control; assay type: functional
[21] = test system: MDA-MB-231; test: Cell cycle arrest in human MDA-MB-231 cells assessed as accumulation of cells at G1 phase incubated for 24 hrs by RNase A/PI staining based flow cytometric analysis relative to control; assay type: functional
[22] = test system: MDA-MB-231; test: Cell cycle arrest in human MDA-MB-231 cells assessed as accumulation of cells at G2/M phase incubated for 24 hrs by RNase A/PI staining based flow cytometric analysis relative to control; assay type: functional
[23] = test system: MDA-MB-231; test: Cell cycle arrest in human MDA-MB-231 cells assessed as accumulation of cells at S phase at 15 nM preincubated with compound for 15 mins followed by light irradiation and measured after 3 to 24 hrs by RNase A/PI staining based flow cytometric analysis (reference value: 16.4%); assay type: functional; settings: time 195-1455 min
[24] = test system: MDA-MB-231; test: Cell cycle arrest in human MDA-MB-231 cells assessed as accumulation of cells at G1 phase at 15 nM preincubated with compound for 15 mins followed by light irradiation and measured after 3 to 24 hrs by RNase A/PI staining based flow cytometric analysis (reference value: 65.7%); assay type: functional; settings: time 195-1455 min
[25] = test system: MDA-MB-231; test: Cell cycle arrest in human MDA-MB-231 cells assessed as accumulation of cells at G1 phase at 30 nM preincubated with compound for 15 mins followed by light irradiation and measured after 3 to 24 hrs by RNase A/PI staining based flow cytometric analysis (reference value: 65.7%); assay type: functional; settings: time 195-1455 min
[26] = test system: MDA-MB-231; test: Cell cycle arrest in human MDA-MB-231 cells assessed as accumulation of cells at S phase at 30 nM preincubated with compound for 15 mins followed by light irradiation and measured after 3 to 24 hrs by RNase A/PI staining based flow cytometric analysis (reference value: 16.4%); assay type: functional; settings: time 195-1455 min
[27] = test system: MDA-MB-231; test: Cell cycle arrest in human MDA-MB-231 cells assessed as accumulation of cells at G2/M phase at 30 nM preincubated with compound for 15 mins followed by light irradiation and measured after 3 to 24 hrs by RNase A/PI staining based flow cytometric analysis (reference value: 12.9%); assay type: functional; settings: time 195-1455 min
[28] = Absorption property of the compound by UV-vis spectrophotometer; assay type: physicochemical
[29] = Emission property of the compound by fluorescence spectrophotometer analysis; assay type: physicochemical
[30] = Absorption property of the compound assessed as molar extinction co-effecient by UV-vis spectrophotometer; assay type: physicochemical
[31] = Fluorescence property of the compound assessed as fluorescence quantum yield in EtOH; assay type: physicochemical
[32] = Absorption property of the compound assessed as triplet quantum yield by UV-vis spectrophotometer; assay type: physicochemical
[33] = Photosensitizing ability of the compound in MeOH assessed as singlet oxygen generation at 408 nm measured upto 120 sec by DPBF based assay; assay type: functional
[34] = Absorption property of the compound assessed as decay lifetime; assay type: physicochemical
[35] = test system: MDA-MB-231; test: Induction of oxidative stress on human MDA-MB-231 cells assessed as increase in ROS population at 30 nM preincubated with compound for 24 hrs followed by 540 nm light irradiation for 1 hrs by CM-H2DCFDA staining based analysis (reference value: 2.5%); assay type: functional; settings: time 25 hrs
[36] = test system: MDA-MB-231; test: Induction of oxidative stress on human MDA-MB-231 cells assessed as increase in ROS population at 60 nM preincubated with compound for 24 hrs followed by 540 nm light irradiation for 1 hrs by CM-H2DCFDA staining based analysis (reference value: 2.5%); assay type: functional; settings: time 25 hrs
[37] = test system: MDA-MB-231; test: Induction of apoptosis in human MDA-MB-231 cells assessed as early apoptotic cells at 30 nM incubated for 24 hrs under dark condition by Annexin V-FITC/PI staining based flow cytometric analysis relative to control; assay type: functional
[38] = test system: MDA-MB-231; test: Induction of apoptosis in human MDA-MB-231 cells assessed as late apoptotic cells at 30 nM incubated for 24 hrs under dark condition by Annexin V-FITC/PI staining based flow cytometric analysis relative to control; assay type: functional
[39] = test system: MDA-MB-231; test: Induction of apoptosis in human MDA-MB-231 cells assessed as necrotic cells at 30 nM incubated for 24 hrs under dark condition by Annexin V-FITC/PI staining based flow cytometric analysis relative to control; assay type: functional
[40] = test system: MDA-MB-231; test: Induction of apoptosis in human MDA-MB-231 cells assessed as early apoptotic cells at 60 nM preincubated with compound for 24 hrs followed by 540 nm light irradiation for 1 hrs by Annexin V-FITC/PI staining based flow cytometric analysis (reference value: 19.2%); assay type: functional; settings: time 25 hrs
[41] = test system: MDA-MB-231; test: Induction of apoptosis in human MDA-MB-231 cells assessed as late apoptotic cells at 60 nM preincubated with compound for 24 hrs followed by 540 nm light irradiation for 1 hrs by Annexin V-FITC/PI staining based flow cytometric analysis (reference value: 17.1%); assay type: functional; settings: time 25 hrs
[42] = test system: MDA-MB-231; test: Induction of apoptosis in human MDA-MB-231 cells assessed as necrotic cells at 60 nM preincubated with compound for 24 hrs followed by 540 nm light irradiation for 1 hrs by Annexin V-FITC/PI staining based flow cytometric analysis (reference value: 2.7%); assay type: functional; settings: time 25 hrs
[43] = test system: MDA-MB-231; test: Cell cycle arrest in human MDA-MB-231 cells assessed as accumulation of cells at G1 phase at 60 nM preincubated with compound for 15 mins followed by light irradiation and measured after 3 to 24 hrs by RNase A/PI staining based flow cytometric analysis (reference value: 65.7%); assay type: functional; settings: time 195-1455 min
[44] = test system: MDA-MB-231; test: Cell cycle arrest in human MDA-MB-231 cells assessed as accumulation of cells at S phase at 60 nM preincubated with compound for 15 mins followed by light irradiation and measured after 3 to 24 hrs by RNase A/PI staining based flow cytometric analysis (reference value: 16.4%); assay type: functional; settings: time 195-1455 min
[45] = test system: MDA-MB-231; test: Cell cycle arrest in human MDA-MB-231 cells assessed as accumulation of cells at G2/M phase at 60 nM preincubated with compound for 15 mins followed by light irradiation and measured after 3 to 24 hrs by RNase A/PI staining based flow cytometric analysis (reference value: 12.9%); assay type: functional; settings: time 195-1455 min

Row | Drug uptake [6] | Activity [28] [nm] | Activity [29] [nm] | Activity [30] [M⁻¹ cm⁻¹] | Activity [31] | Structure (SMILES) | pIC50 [1] | pIC50 [2] | pIC50 [3] | pIC50 [4] | IC50 at 24 h [5] [nM] | Activity [7] [%] | Activity [16] [%] | Activity [17] [%] | Activity [18] [%] | Activity [20] [%] | Activity [21] [%] | Activity [22] [%] | Activity [25] [%] | Activity [26] [%] | Activity [27] [%] | other results
1 | – | – | – | – | – | C#CCOc1ccc(C2=C3C(C)=C(I)C(C)=[N+]3[B-](F)(F)n3c(C)c(I)c(C)c32)cc1 | 7.60 | – | – | – | – | – | – | – | – | – | – | – | – | – | – | –
2 | Active | 534 | 551 | 123000 | 0.032 | CC1=C(I)C(C)=[N+]2C1=C(c1ccc(OCc3cn(CCOCCOCCOCCNC(=O)CCCCC4SCC5NC(=O)NC54)nn3)cc1)c1c(C)c(I)c(C)n1[B-]2(F)F (centres undefined) | 7.73 | 7.66 | 7.65 | 7.56 | 196 | 14.2 | 8.3 | 43 | 21.4 | 17.7 | 64.8 | 13.7 | 62.2 | 14.7 | 22.9 | Activity [8]: 41.6%; Activity [9]: 62.3%; Activity [10]: 13%; Activity [11]: 10.4%; Activity [12]: 3%; Activity [13]: 22.4%; Activity [14]: 30%; Activity [15]: 7.3%; Activity [19]: 21.8%; Activity [23]: 15.5%; Activity [24]: 59%; Activity [32]: 0.4; Activity [33]: 0.33; Time [34]: 3.6 microsec
3 | Active | 533 | 549 | 91000 | 0.039 | CC1=C(I)C(C)=[N+]2C1=C(c1ccc(OCc3cn(CCOCCOCCOCCOCCNC(=O)CCCCC4SCC5NC(=O)NC54)nn3)cc1)c1c(C)c(I)c(C)n1[B-]2(F)F (centres undefined) | 7.28 | 7.27 | 7.13 | 7.05 | 177 | 5.9 | 10.5 | 11.2 | 12.1 | 18.1 | 63.3 | 13.3 | 63 | 14.6 | 19.2 | Activity [35]: 92.3%; Activity [36]: 92.4%; Activity [37]: 5.6%; Activity [38]: 11.5%; Activity [39]: 5.8%; Activity [40]: 4.5%; Activity [41]: 34.1%; Activity [42]: 40.1%; Activity [43]: 58.7%; Activity [44]: 15.5%; Activity [45]: 22%; Activity [32]: 0.44; Activity [33]: 0.34; Time [34]: 2.5 microsec

Source: ChEMBL document CHEMBL5356947, “Mitochondria-targeted biotin-conjugated BODIPYs for cancer imaging and therapy” (RSC Med Chem, 2023)
